Assay [1] has as its system RAW264.7. Description: Anti-inflammatory activity against IL-4/IL-13 stimulated mouse RAW264.7 cells assessed as inhibition of IL-10 secretion at 20 uM incubated for 48 hrs by ELISA method. The class given is functional, cell-based. For orientation: In an ELISA, binding on a coated surface is turned into a signal by an enzyme label.
Assay [2] deals with RAW264.7. Description: Anti-inflammatory activity against IL-4/IL-13 stimulated mouse RAW264.7 cells assessed as upregulation of TNFalpha secretion at 20 uM incubated for 48 hrs by ELISA method. The class given is functional, cell-based.
Assay [3] relates to RAW264.7. In words: Anti-inflammatory activity against IL-4/IL-13 stimulated mouse RAW264.7 cells assessed as inhibition of IL-10 secretion at 5 to 20 uM incubated for 48 hrs by ELISA method relative to control. The class given is functional. The following applies: dose 5-20 µM.
For assay [4], the system named is RAW264.7. Description: Anti-inflammatory activity against IL-4/IL-13 stimulated mouse RAW264.7 cells assessed as upregulation of TNFalpha secretion at 5 to 20 uM incubated for 48 hrs by ELISA method relative to control. The class given is functional. The following applies: dose 5-20 µM.

Experimental findings from ChEMBL document CHEMBL5316370, “Laeviganoids A-T, ent-Clerodane-Type Diterpenoids from Croton laevigatus” (2023) are described below.

SMILES strings stand for the structures. Activity calls are given as the source filed them. The rule behind the calls is not given here.

With `CC1=CC(=O)O[C@@H]1C[C@@]1(C)[C@H](C)CC[C@@]2(C)C(C)=CC(=O)C[C@H]12`, the inhibition result in the assay on RAW264.7 [1] is “Active”.

As to `C[C@@H]1CC[C@]2(C)[C@H](CCC(=O)[C@H]2C)[C@@]1(C)CCc1ccoc1`, the inhibition entry in the assay on RAW264.7 [1] is “Active”. The outcome in the assay with RAW264.7 [2] was Active. As to `C[C@]12C[C@@H](c3ccoc3)OC(=O)[C@@H]1CC[C@]1(C)[C@@H]2CCC(=O)[C@]1(C)O`, the inhibition result in the assay on RAW264.7 [1] was “Active”.

In the case of `COC(=O)[C@@H]1CC[C@]2(C)[C@H](CC[C@@H](O)[C@]2(C)O)[C@@]1(C)CC(=O)c1ccoc1`, the inhibition entry in the assay with RAW264.7 [1] was “Active”. Moreover, the outcome with RAW264.7 [2] was Active. Consider `C[C@@H]1CC[C@]2(C)[C@H](CC[C@@H](O)[C@]2(C)O)[C@@]1(C)CC(=O)c1ccoc1`, for which the inhibition result with RAW264.7 [1] was “Active”. The same measure, in the same setting: under `CC(=O)O[C@@H]1[C@@H](c2ccoc2)OC(=O)[C@@H]2CC[C@@]3(C)C(C)C(=O)CC[C@@H]3[C@@]12C` (stereo partly drawn) stands “Active”; under `CC1=CC(=O)O[C@@H]1C[C@@]1(C)[C@H](C)CC[C@@]2(C)C(C)=CCC[C@H]12`, “Active”. As for `CO[C@@]1(C)[C@H](O)CC[C@@H]2[C@@]3(C)[C@H](OC(=O)c4ccccc4)[C@@H](c4ccoc4)OC(=O)[C@@H]3CC[C@]21C`, the “inhibition (INH)” value in the assay with RAW264.7 [3] is given as >40%. In addition, the inhibition result in the assay on RAW264.7 [1] is “Active”. Also, the outcome in the assay on RAW264.7 [2] was Active. In addition, the Activity with RAW264.7 [4] is >40%.

For the compound `C/C(=C\CO)CC[C@@]1(C)[C@H](C)CC[C@@]2(C)C(CO)=CCC[C@H]12`, the “inhibition (INH)” value with RAW264.7 [3] is listed as >40%. Besides, in the assay on RAW264.7 [1], the inhibition entry was “Active”. For the same compound, the outcome in the assay on RAW264.7 [2] was Active. Further, the Activity in the assay with RAW264.7 [4] is on record as >40%. As to `C[C@@H]1C(=O)CC[C@@H]2[C@@](C)(CCc3ccoc3)[C@H](CO)CC[C@]21C`, the inhibition result with RAW264.7 [1] was “Active”. The same measure, in the same setting: the entry for `C=C1[C@H](O)CC[C@@H]2[C@@](C)(CC(=O)c3ccoc3)[C@H](C)CC[C@@]12C` is “Active”. Turning to `COC(=O)[C@@H]1CC[C@]2(C)[C@H](CC[C@@H](O)[C@]2(C)OC)[C@@]1(C)CC(=O)c1ccoc1`, the inhibition result in the assay with RAW264.7 [1] is “Active”. In addition, the result with RAW264.7 [2] was Active.

On to `CC1=CCC[C@@H]2[C@@]3(C)C[C@@H](c4ccoc4)OC(=O)[C@@H]3CC[C@@]12C`, for which, in the assay with RAW264.7 [1], the inhibition result is “Active”.

As for `CC1=CC(=O)O[C@H]1C[C@@]1(C)[C@H](C)CC[C@@]2(C)C(C)=CCC[C@H]12`, the inhibition result with RAW264.7 [1] is “Active”. The same measure, in the same setting: under `C[C@]12C[C@@H](c3ccoc3)OC(=O)[C@@H]1CC[C@]1(C)[C@@H]2CCC(=O)[C@@]1(C)O` stands “Active”; under `CC(=O)O[C@@H]1[C@@H](c2ccoc2)OC(=O)[C@@H]2CC[C@]3(C)[C@H](CC[C@@H](O)[C@]3(C)O)[C@@]12C`, “Active”.

As for `C[C@@H]1CC[C@]2(C)[C@H](CCC(=O)[C@H]2C)[C@@]1(C)CC(=O)c1ccoc1`, the inhibition result in the assay on RAW264.7 [1] was “Active”.

Take `CO[C@@]1(C)[C@H](O)CC[C@@H]2[C@@](C)(C[C@H](O)c3ccoc3)[C@H](C)CC[C@]21C`: in the assay with RAW264.7 [3], the “inhibition (INH)” value is listed as >40%. For the same compound, the inhibition entry in the assay on RAW264.7 [1] was “Active”. Moreover, the outcome in the assay with RAW264.7 [2] was Active. Besides, the Activity in the assay with RAW264.7 [4] is recorded as >40%. With `C[C@@H]1CC[C@]2(C)[C@H](CC[C@@H](O)[C@]2(C)O)[C@@]1(C)CCc1ccoc1`, in the assay on RAW264.7 [1], the inhibition entry was “Active”. Moreover, the result in the assay with RAW264.7 [2] was Active. As to `C[C@]1(C[C@H](O)c2ccoc2)[C@H](CO)CC[C@]2(C)[C@@H]1CC[C@@H](O)[C@]2(C)O`, the inhibition result in the assay on RAW264.7 [1] is “Active”. Also, in the assay with RAW264.7 [2], the result was Active. For `C[C@]12C(=CC[C@]3(C)[C@@H]1CC[C@@H](O)[C@]3(C)O)C(=O)O[C@H](c1ccoc1)[C@H]2OC(=O)c1ccccc1`, the inhibition entry with RAW264.7 [1] is “Active”. Same read-out and setting: the entry for `C[C@]12[C@H](OC(=O)c3ccccc3)[C@@H](c3ccoc3)OC(=O)[C@@H]1CC[C@]1(C)[C@@H]2CC[C@@H](O)[C@]1(C)O` is “Active”; for `C[C@]1(CCc2ccoc2)[C@H](CO)CC[C@]2(C)[C@@H]1CC[C@@H](O)[C@]2(C)O` it is “Active”. Turning to `CCO[C@@]1(C)[C@H](O)CC[C@@H]2[C@@](C)(CC(=O)c3ccoc3)[C@H](C)CC[C@]21C`, the “inhibition (INH)” value with RAW264.7 [3] is reported as >40%. Besides, the inhibition entry in the assay on RAW264.7 [1] was “Active”. In addition, the outcome with RAW264.7 [2] was Active. For the same compound, the Activity in the assay on RAW264.7 [4] was >40%.

As for `C=C1[C@H](O)CC[C@@H]2[C@@](C)(C[C@H](O)c3ccoc3)[C@H](C)CC[C@@]12C`, the inhibition result with RAW264.7 [1] was “Active”. Same read-out and setting: the entry for `C[C@]12C[C@@H](c3ccoc3)OC(=O)[C@@H]1CC[C@]1(C)[C@@H]2CC[C@H](Cl)[C@@]1(C)O` is “Active”.
